Tests used:
hCA IX = target: T1, hCA IX (Homo sapiens, UniProt Q16790); test: stopped flow CO2 hydrase assay, CA inhibition; assay type: biochemical; conditions: recombinant enzyme, pH 7.4, 10 min pre-incubation, from 3 different assays
T1 construct: made in house
Method: (§1) An SX.18 MV-R Applied Photophysics (Oxford, UK) stopped-flow instrument has been used to assay the catalytic/inhibition of various CA isozymes. […] Stock solutions of inhibitors were prepared at a concentration of 10 mM (in DMSO-water 1:1, v/v) and dilutions up to 0.01 nM done with the assay buffer mentioned above. […] Inhibitor and enzyme solutions were pre-incubated together for 10 min at room temperature prior to assay, in order to allow for the formation of the E-I complex. […] The inhibition constants were obtained by nonlinear least-squares methods using the Cheng-Prusoff equation, as reported earlier, and represent the mean from at least three different determinations.

hCA I = target: T2, hCA I (Homo sapiens, UniProt P00915); test: stopped flow CO2 hydrase assay, CA inhibition; assay type: biochemical; conditions: recombinant enzyme, pH 7.4, 10 min pre-incubation, from 3 different assays
T2 construct: made in house
Method: as §1

hCA II = target: T3, hCA II (Homo sapiens, UniProt P00918); test: stopped flow CO2 hydrase assay, CA inhibition; assay type: biochemical; conditions: recombinant enzyme, pH 7.4, 10 min pre-incubation, from 3 different assays
T3 construct: made in house
Method: as §1

hCA XII = target: T4, hCA XII (Homo sapiens, UniProt O43570); test: stopped flow CO2 hydrase assay, CA inhibition; assay type: biochemical; conditions: recombinant enzyme, pH 7.4, 10 min pre-incubation, from 3 different assays
T4 construct: made in house
Method: as §1

T2 sequence (P00915 whole entry): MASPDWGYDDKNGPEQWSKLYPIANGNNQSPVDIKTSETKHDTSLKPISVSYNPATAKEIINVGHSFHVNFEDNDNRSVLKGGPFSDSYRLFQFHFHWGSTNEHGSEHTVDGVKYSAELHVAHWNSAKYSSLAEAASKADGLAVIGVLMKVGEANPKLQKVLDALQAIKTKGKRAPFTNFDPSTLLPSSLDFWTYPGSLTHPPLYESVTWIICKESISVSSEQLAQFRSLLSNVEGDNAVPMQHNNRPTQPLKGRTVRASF
T4 sequence (O43570 25-354): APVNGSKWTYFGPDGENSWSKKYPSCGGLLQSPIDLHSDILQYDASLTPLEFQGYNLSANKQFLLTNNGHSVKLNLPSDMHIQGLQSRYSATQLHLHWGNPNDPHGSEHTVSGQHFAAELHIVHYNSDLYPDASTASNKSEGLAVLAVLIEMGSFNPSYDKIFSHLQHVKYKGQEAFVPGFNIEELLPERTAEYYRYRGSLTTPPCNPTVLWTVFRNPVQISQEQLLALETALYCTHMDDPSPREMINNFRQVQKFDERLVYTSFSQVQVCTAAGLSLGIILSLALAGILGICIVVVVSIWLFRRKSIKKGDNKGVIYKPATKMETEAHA

Row | Compound | melting point [°C] | Ki (hCA IX) [nM] | Ki (hCA I) [nM] | Ki (hCA II) [nM] | Ki (hCA XII) [nM]
1 | NS(=O)(=O)c1ccc(NC(=O)Nc2ccc(Cc3ccc(NC(=O)Nc4ccc(S(N)(=O)=O)cc4)cc3)cc2)cc1 [Compound 9, 4,4'-((((Methylenebis(4,1-phenylene))bis(azanediyl))bis(carbonyl))bis(azanediyl))dibenzenesulfonamide] | 293 to 294 | 835 | 6280 | 484 | 429
2 | NS(=O)(=O)c1ccc(NC(=O)Nc2ccc(NC(=O)Nc3ccc(S(N)(=O)=O)cc3)cc2)cc1 [Compound 8, 4,4'-(((1,4-Phenylenebis(azanediyl))bis(carbonyl))bis(azanediyl))dibenzenesulfonamide] | > 300 | 57.5 | 7280 | 680 | 37.3
3 | Cc1cc(-c2ccc(NC(=O)NCCc3ccc(S(N)(=O)=O)cc3)c(C)c2)ccc1NC(=O)NCCc1ccc(S(N)(=O)=O)cc1 [Compound 18, 4,4'-(((((3,3'-Dimethyl-[1,1'-biphenyl]-4,4'-diyl)bis(azanediyl))bis(carbonyl))bis(azanediyl))bis(ethane-2,1-diyl))dibenzenesulfonamide] | > 300 | 93.7 | 8310 | 604 | 60.3
4 | NS(=O)(=O)c1cccc(NC(=O)Nc2ccc(NC(=O)Nc3cccc(S(N)(=O)=O)c3)cc2)c1 [Compound 12, 3,3'-(((1,4-Phenylenebis(azanediyl))bis(carbonyl))bis(azanediyl))dibenzenesulfonamide] | > 300 | 63.8 | 6520 | 550 | 63.2
5 | NS(=O)(=O)c1ccc(CCNC(=O)Nc2ccc(NC(=O)NCCc3ccc(S(N)(=O)=O)cc3)cc2)cc1 [Compound 16, 4,4'-((((1,4-Phenylenebis(azanediyl))bis(carbonyl))bis(azanediyl))bis(ethane-2,1-diyl))dibenzenesulfonamide] | > 300 | 68.7 | 2910 | 424 | 82.8
6 | Cc1ccc(NC(=O)Nc2cccc(S(N)(=O)=O)c2)cc1NC(=O)Nc1cccc(S(N)(=O)=O)c1 [Compound 15, 3,3'-((((4-Methyl-1,3-phenylene)bis(azanediyl))bis(carbonyl))bis(azanediyl))dibenzenesulfonamide] | 233 to 234 | 81.1 | 5000 | 80.8 | 67.1
7 | NS(=O)(=O)c1ccc(CCNC(=O)Nc2ccc(Cc3ccc(NC(=O)NCCc4ccc(S(N)(=O)=O)cc4)cc3)cc2)cc1 [Compound 17, 4,4'-(((((Methylenebis(4,1-phenylene))bis(azanediyl))bis(carbonyl))bis(azanediyl))bis(ethane-2,1-diyl))dibenzenesulfonamide] | 270 to 272 | 91.9 | 5350 | 792 | 33.6
8 | Cc1ccc(NC(=O)NCCc2ccc(S(N)(=O)=O)cc2)cc1NC(=O)NCCc1ccc(S(N)(=O)=O)cc1 [Compound 19, 4,4'-(((((4-Methyl-1,3-phenylene)bis(azanediyl))bis(carbonyl))bis(azanediyl))bis(ethane-2,1-diyl))dibenzenesulfonamide] | 245 to 247 | 8.92 | 95.4 | 25.8 | 5.02
9 | Cc1cc(-c2ccc(NC(=O)Nc3ccc(S(N)(=O)=O)cc3)c(C)c2)ccc1NC(=O)Nc1ccc(S(N)(=O)=O)cc1 [Compound 10, 4,4'-((((3,3'-Dimethyl-[1,1'-biphenyl]-4,4'-diyl)bis(azanediyl))bis(carbonyl))bis(azanediyl))dibenzenesulfonamide] | > 300 | 86.4 | 947 | 302 | 52.3
10 | NS(=O)(=O)c1cccc(NC(=O)Nc2ccc(Cc3ccc(NC(=O)Nc4cccc(S(N)(=O)=O)c4)cc3)cc2)c1 [Compound 13, 3,3'-((((Methylenebis(4,1-phenylene))bis(azanediyl))bis(carbonyl))bis(azanediyl))dibenzenesulfonamide] | 293 to 295 | 78.7 | 9170 | 306 | 27.7
11 | Cc1ccc(NC(=O)Nc2ccc(S(N)(=O)=O)cc2)cc1NC(=O)Nc1ccc(S(N)(=O)=O)cc1 [Compound 11, 4,4'-((((4-Methyl-1,3-phenylene)bis(azanediyl))bis(carbonyl))bis(azanediyl))dibenzenesulfonamide] | 279 to 281 | 6.73 | 68.1 | 4.4 | 7.39
12 | Cc1cc(-c2ccc(NC(=O)Nc3cccc(S(N)(=O)=O)c3)c(C)c2)ccc1NC(=O)Nc1cccc(S(N)(=O)=O)c1 [Compound 14, 3,3'-((((3,3'-Dimethyl-[1,1'-biphenyl]-4,4'-diyl)bis(azanediyl))bis(carbonyl))bis(azanediyl))dibenzenesulfonamide] | > 300 | 578 | 688 | 637 | 67.9
